# Results published in the NIST ThermoML archive (doi:10.1016/j.jct.2015.12.029).
# ± gives the expanded uncertainty stated by the source.
# Test: mn = molality of the nth substance listed, in mol/kg
# Conditions: 100 kPa, Liquid; for molar conductivity: Alternating current cell with electrodes; for mass density: Vibrating tube method, m1 = 0.009007
compound,measurement,setting,value
CCCCn1cc[n+](C)c1.F[B-](F)(F)F [1-butyl-3-methylimidazolium tetrafluoroborate] + CCCCO,molar conductivity,"283.15 K, m1 = 7.252e-05",0.00118 ± 1.2e-05 S·m2/mol
same,molar conductivity,"283.15 K, m1 = 0.0001049",0.00114 ± 1.2e-05 S·m2/mol
same,molar conductivity,"283.15 K, m1 = 0.0001948",0.00103 ± 1.1e-05 S·m2/mol
same,molar conductivity,"283.15 K, m1 = 0.0002951",0.000958 ± 1e-05 S·m2/mol
same,molar conductivity,"283.15 K, m1 = 0.0004065",0.000896 ± 1e-05 S·m2/mol
same,molar conductivity,"283.15 K, m1 = 0.000564",0.000826 ± 9e-06 S·m2/mol
same,molar conductivity,"283.15 K, m1 = 0.000759",0.000763 ± 9e-06 S·m2/mol
same,molar conductivity,"283.15 K, m1 = 0.0009843",0.000711 ± 8e-06 S·m2/mol
same,molar conductivity,"283.15 K, m1 = 0.001432",0.000635 ± 8e-06 S·m2/mol
same,molar conductivity,"283.15 K, m1 = 0.001963",0.000573 ± 7e-06 S·m2/mol
same,molar conductivity,"283.15 K, m1 = 0.003008",0.000498 ± 7e-06 S·m2/mol
same,mass density,283.15 K,817.699 ± 0.22 kg/m3
same,molar conductivity,"288.15 K, m1 = 7.252e-05",0.00135 ± 1.4e-05 S·m2/mol
same,molar conductivity,"288.15 K, m1 = 0.0001049",0.0013 ± 1.3e-05 S·m2/mol
same,molar conductivity,"288.15 K, m1 = 0.0001948",0.00118 ± 1.3e-05 S·m2/mol
same,molar conductivity,"288.15 K, m1 = 0.0002951",0.00109 ± 1.2e-05 S·m2/mol
same,molar conductivity,"288.15 K, m1 = 0.0004065",0.00102 ± 1.1e-05 S·m2/mol
same,molar conductivity,"288.15 K, m1 = 0.000564",0.000939 ± 1.1e-05 S·m2/mol
same,molar conductivity,"288.15 K, m1 = 0.000759",0.000869 ± 1e-05 S·m2/mol
same,molar conductivity,"288.15 K, m1 = 0.0009843",0.000808 ± 9e-06 S·m2/mol
same,molar conductivity,"288.15 K, m1 = 0.001432",0.000719 ± 9e-06 S·m2/mol
same,molar conductivity,"288.15 K, m1 = 0.001963",0.000648 ± 8e-06 S·m2/mol
same,molar conductivity,"288.15 K, m1 = 0.003008",0.000562 ± 7e-06 S·m2/mol
same,mass density,288.15 K,813.937 ± 0.22 kg/m3
same,molar conductivity,"293.15 K, m1 = 7.252e-05",0.00154 ± 1.6e-05 S·m2/mol
same,molar conductivity,"293.15 K, m1 = 0.0001049",0.00148 ± 1.5e-05 S·m2/mol
same,molar conductivity,"293.15 K, m1 = 0.0001948",0.00135 ± 1.4e-05 S·m2/mol
same,molar conductivity,"293.15 K, m1 = 0.0002951",0.00125 ± 1.4e-05 S·m2/mol
same,molar conductivity,"293.15 K, m1 = 0.0004065",0.00116 ± 1.3e-05 S·m2/mol
same,molar conductivity,"293.15 K, m1 = 0.000564",0.00107 ± 1.2e-05 S·m2/mol
same,molar conductivity,"293.15 K, m1 = 0.000759",0.000986 ± 1.1e-05 S·m2/mol
same,molar conductivity,"293.15 K, m1 = 0.0009843",0.000917 ± 1e-05 S·m2/mol
same,molar conductivity,"293.15 K, m1 = 0.001432",0.000816 ± 1e-05 S·m2/mol
same,molar conductivity,"293.15 K, m1 = 0.001963",0.000736 ± 9e-06 S·m2/mol
same,molar conductivity,"293.15 K, m1 = 0.003008",0.000639 ± 8e-06 S·m2/mol
same,mass density,293.15 K,810.147 ± 0.22 kg/m3
same,molar conductivity,"298.15 K, m1 = 7.252e-05",0.00177 ± 1.8e-05 S·m2/mol
same,molar conductivity,"298.15 K, m1 = 0.0001049",0.00169 ± 1.7e-05 S·m2/mol
same,molar conductivity,"298.15 K, m1 = 0.0001948",0.00154 ± 1.6e-05 S·m2/mol
same,molar conductivity,"298.15 K, m1 = 0.0002951",0.00142 ± 1.5e-05 S·m2/mol
same,molar conductivity,"298.15 K, m1 = 0.0004065",0.00132 ± 1.5e-05 S·m2/mol
same,molar conductivity,"298.15 K, m1 = 0.000564",0.00121 ± 1.4e-05 S·m2/mol
same,molar conductivity,"298.15 K, m1 = 0.000759",0.00112 ± 1.3e-05 S·m2/mol
same,molar conductivity,"298.15 K, m1 = 0.0009843",0.00104 ± 1.2e-05 S·m2/mol
same,molar conductivity,"298.15 K, m1 = 0.001432",0.000925 ± 1.1e-05 S·m2/mol
same,molar conductivity,"298.15 K, m1 = 0.001963",0.000834 ± 1e-05 S·m2/mol
same,molar conductivity,"298.15 K, m1 = 0.003008",0.00072 ± 1e-05 S·m2/mol
same,mass density,298.15 K,806.337 ± 0.22 kg/m3
same,molar conductivity,"303.15 K, m1 = 7.252e-05",0.00199 ± 2e-05 S·m2/mol
same,molar conductivity,"303.15 K, m1 = 0.0001049",0.00191 ± 2e-05 S·m2/mol
same,molar conductivity,"303.15 K, m1 = 0.0001948",0.00173 ± 1.9e-05 S·m2/mol
same,molar conductivity,"303.15 K, m1 = 0.0002951",0.00158 ± 1.7e-05 S·m2/mol
same,molar conductivity,"303.15 K, m1 = 0.0004065",0.00147 ± 1.6e-05 S·m2/mol
same,molar conductivity,"303.15 K, m1 = 0.000564",0.00135 ± 1.5e-05 S·m2/mol
same,molar conductivity,"303.15 K, m1 = 0.000759",0.00125 ± 1.4e-05 S·m2/mol
same,molar conductivity,"303.15 K, m1 = 0.0009843",0.00116 ± 1.3e-05 S·m2/mol
same,molar conductivity,"303.15 K, m1 = 0.001432",0.00103 ± 1.2e-05 S·m2/mol
same,molar conductivity,"303.15 K, m1 = 0.001963",0.00093 ± 1.1e-05 S·m2/mol
same,molar conductivity,"303.15 K, m1 = 0.003008",0.000807 ± 1.1e-05 S·m2/mol
same,mass density,303.15 K,802.5 ± 0.22 kg/m3
same,molar conductivity,"308.15 K, m1 = 7.252e-05",0.00224 ± 2.3e-05 S·m2/mol
same,molar conductivity,"308.15 K, m1 = 0.0001049",0.00214 ± 2.2e-05 S·m2/mol
same,molar conductivity,"308.15 K, m1 = 0.0001948",0.00193 ± 2.1e-05 S·m2/mol
same,molar conductivity,"308.15 K, m1 = 0.0002951",0.00177 ± 1.9e-05 S·m2/mol
same,molar conductivity,"308.15 K, m1 = 0.0004065",0.00164 ± 1.8e-05 S·m2/mol
same,molar conductivity,"308.15 K, m1 = 0.000564",0.00151 ± 1.7e-05 S·m2/mol
same,molar conductivity,"308.15 K, m1 = 0.000759",0.00139 ± 1.6e-05 S·m2/mol
same,molar conductivity,"308.15 K, m1 = 0.0009843",0.00129 ± 1.5e-05 S·m2/mol
same,molar conductivity,"308.15 K, m1 = 0.001432",0.00114 ± 1.4e-05 S·m2/mol
same,molar conductivity,"308.15 K, m1 = 0.001963",0.00103 ± 1.2e-05 S·m2/mol
same,molar conductivity,"308.15 K, m1 = 0.003008",0.000896 ± 1.2e-05 S·m2/mol
same,mass density,308.15 K,798.633 ± 0.23 kg/m3
same,molar conductivity,"313.15 K, m1 = 7.252e-05",0.0025 ± 2.6e-05 S·m2/mol
same,molar conductivity,"313.15 K, m1 = 0.0001049",0.00238 ± 2.5e-05 S·m2/mol
same,molar conductivity,"313.15 K, m1 = 0.0001948",0.00214 ± 2.3e-05 S·m2/mol
same,molar conductivity,"313.15 K, m1 = 0.0002951",0.00197 ± 2.2e-05 S·m2/mol
same,molar conductivity,"313.15 K, m1 = 0.0004065",0.00182 ± 2e-05 S·m2/mol
same,molar conductivity,"313.15 K, m1 = 0.000564",0.00168 ± 1.9e-05 S·m2/mol
same,molar conductivity,"313.15 K, m1 = 0.000759",0.00154 ± 1.8e-05 S·m2/mol
same,molar conductivity,"313.15 K, m1 = 0.0009843",0.00143 ± 1.6e-05 S·m2/mol
same,molar conductivity,"313.15 K, m1 = 0.001432",0.00126 ± 1.5e-05 S·m2/mol
same,molar conductivity,"313.15 K, m1 = 0.001963",0.00114 ± 1.3e-05 S·m2/mol
same,molar conductivity,"313.15 K, m1 = 0.003008",0.00099 ± 1.3e-05 S·m2/mol
same,mass density,313.15 K,794.73 ± 0.23 kg/m3
same,molar conductivity,"318.15 K, m1 = 7.252e-05",0.00278 ± 2.8e-05 S·m2/mol
same,molar conductivity,"318.15 K, m1 = 0.0001049",0.00264 ± 2.7e-05 S·m2/mol
same,molar conductivity,"318.15 K, m1 = 0.0001948",0.00237 ± 2.6e-05 S·m2/mol
same,molar conductivity,"318.15 K, m1 = 0.0002951",0.00217 ± 2.4e-05 S·m2/mol
same,molar conductivity,"318.15 K, m1 = 0.0004065",0.00201 ± 2.2e-05 S·m2/mol
same,molar conductivity,"318.15 K, m1 = 0.000564",0.00184 ± 2.1e-05 S·m2/mol
same,molar conductivity,"318.15 K, m1 = 0.000759",0.00169 ± 2e-05 S·m2/mol
same,molar conductivity,"318.15 K, m1 = 0.0009843",0.00156 ± 1.8e-05 S·m2/mol
same,molar conductivity,"318.15 K, m1 = 0.001432",0.00138 ± 1.7e-05 S·m2/mol
same,molar conductivity,"318.15 K, m1 = 0.001963",0.00125 ± 1.5e-05 S·m2/mol
same,molar conductivity,"318.15 K, m1 = 0.003008",0.00108 ± 1.5e-05 S·m2/mol
same,mass density,318.15 K,790.785 ± 0.23 kg/m3
